From patent US9796742B2, “Kinase inhibitors” (Respivert Limited, priority 2012, dated 2017) come the findings set out here.

Assay [1] concerns the target Syk (Homo sapiens (Human), UniProt P43405). Nature of the assay: Syk enzyme inhibition (FRET, Z-LYTE). In kind it is biochemical. On the procedure:
(§1) The enzyme inhibitory activities of compounds disclosed herein are determined by FRET using synthetic peptides labelled with both donor and acceptor fluorophores (Z-LYTE, Invitrogen Ltd., Paisley, UK).
(§2) The inhibitory activities of compounds of the invention against c-Src and Syk enzymes (Invitrogen), are evaluated in a similar fashion to that described hereinabove. The relevant enzyme (3000 ng/mL or 2000 ng/mL respectively, 2.5 μL) is incubated with the test compound (either 4 μg/mL, 0.4 μg/mL, 0.04 μg/mL, or 0.004 μg/mL, 2.5 μL each) for 2 hr at RT. The FRET peptides (8 μM. 2.5 μL), and appropriate ATP solutions (2.5 μL, 800 μM for c-Src, and 60 μM ATP for Syk) are then added to the enzymes/compound mixtures and incubated for 1 hr. Development reagent (protease, 5 μL) is added for 1 hr prior to detection in a fluorescence microplate reader (Varioskan® Flash, ThermoFisher Scientific).
(§3) In all cases, the site-specific protease cleaves non-phosphorylated peptide only and eliminates the FRET signal. Phosphorylation levels of each reaction are calculated using the ratio of coumarin emission (donor) over fluorescein emission (acceptor), for which high ratios indicate high phosphorylation and low ratios indicate low phosphorylation levels. The percentage inhibition of each reaction is calculated relative to non-inhibited control and the 50% inhibitory concentration (IC50 value) is then calculated from the concentration-response curve.

For assay [2], the system named is PBMCs. The assay can be described thus: LPS-induced TNFα/IL-8 release in PBMC cells. The class given is cell-based. Particulars: Homo sapiens, LPS-stimulated PBMCs, IL-8, read-out: IC50 Values for Inhibition of Cytokine Release, PBMCs IL-8. On the procedure: Peripheral blood mononuclear cells (PBMCs) from healthy subjects are separated from whole blood using a density gradient (Lymphoprep, Axis-Shield Healthcare). The PBMCs are seeded in 96 well plates and treated with compounds at the desired concentration for 2 hours before addition of 1 ng/mL LPS (Escherichia Coli 0111:B4 from Sigma Aldrich) for 24 hours under normal tissue culture conditions (37° C., 5% CO2). The supernatant is harvested for determination of IL-8 and TNFα concentrations by sandwich ELISA (Duo-set, R&D systems) and read on the fluorescence microplate reader (Varioskan® Flash, ThermoFisher Scientific). The concentration at 50% inhibition (IC50) of IL-8 and TNFα production is calculated from the dose response curve.

Assay [3] addresses p38 MAPKα (Homo sapiens (Human), UniProt Q16539). The assay can be described thus: p38 MAPKα enzyme inhibition (FRET, Z-LYTE; Method 2). In kind it is biochemical. On the procedure: as §1
The inhibitory activities of test compounds against the p38 MAPKα isoform (MAPK14: Invitrogen), are evaluated indirectly by determining the level of activation/phosphorylation of the down-stream molecule, MAPKAP-K2. The p38 MAPKα protein (80 ng/mL, 2.5 μL) is mixed with the test compound (2.5 μL of either 4 μg/mL, 0.4 μg/mL, 0.04 μg/mL or 0.004 μg/mL) for 2 hr at RT. […] The mixture is incubated for 1 hr at RT. Development reagent (protease, 5 μL) is added for 1 hr prior to detection in a fluorescence microplate reader (Varioskan® Flash, ThermoFisher Scientific).
Method 2 This method follows the same steps as Method 1 above, but utilises a higher concentration of the p38 MAPKα protein (2.5 μL of 200 ng/mL protein instead of 2.5 μL of 80 ng/mL protein) for mixing with the test compound.
as §3

The target of assay [4] is c-Src (Homo sapiens (Human), UniProt P12931). Nature of the assay: c-Src enzyme inhibition (FRET, Z-LYTE). In kind it is biochemical. On the procedure:
as §1, §2, §3

The target of assay [5] is GSK3α (Homo sapiens (Human), UniProt P49840). Nature of the assay: GSK 3α enzyme inhibition (FRET, Z-LYTE; Method 2). In kind it is biochemical. How it is done: as §1
The inhibitory activities of compounds of the invention against the GSK 3α enzyme isoform (Invitrogen), are evaluated by determining the level of activation/phosphorylation of the target peptide. The GSK3-α protein (500 ng/mL, 2.5 μL) is mixed with the test compound (2.5 μL at either 4 μg/mL, 0.4 μg/mL, 0.04 μg/mL, or 0.004 μg/mL) for 2 hr at RT. The FRET peptide (8 μM, 2.5 μL), which is a phosphorylation target for GSK3α, and ATP (40 μM, 2.5 μL) are then added to the enzyme/compound mixture and the resulting mixture incubated for 1 hr. Development reagent (protease, 5 μL) is added for 1 hr prior to detection in a fluorescence microplate reader (Varioskan® Flash, ThermoFisher Scientific).
as §3
This method follows the same steps as Method 1 above, but utilises a shorter period of mixing of the test compound (105 minutes instead of 2 hours) with the GSK3-α protein.

p38 MAPKα, sequence (Q16539 whole entry, canonical isoform): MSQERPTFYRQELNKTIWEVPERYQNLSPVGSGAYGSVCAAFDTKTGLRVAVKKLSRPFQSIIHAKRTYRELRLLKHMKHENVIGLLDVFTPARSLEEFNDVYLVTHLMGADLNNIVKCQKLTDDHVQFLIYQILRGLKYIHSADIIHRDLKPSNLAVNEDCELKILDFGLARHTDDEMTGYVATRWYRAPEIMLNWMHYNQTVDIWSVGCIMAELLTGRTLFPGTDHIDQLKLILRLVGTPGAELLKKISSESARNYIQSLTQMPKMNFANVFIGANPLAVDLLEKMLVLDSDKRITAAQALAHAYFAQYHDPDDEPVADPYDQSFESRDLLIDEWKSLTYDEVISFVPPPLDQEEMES
GSK3α, sequence (P49840 whole entry, canonical isoform): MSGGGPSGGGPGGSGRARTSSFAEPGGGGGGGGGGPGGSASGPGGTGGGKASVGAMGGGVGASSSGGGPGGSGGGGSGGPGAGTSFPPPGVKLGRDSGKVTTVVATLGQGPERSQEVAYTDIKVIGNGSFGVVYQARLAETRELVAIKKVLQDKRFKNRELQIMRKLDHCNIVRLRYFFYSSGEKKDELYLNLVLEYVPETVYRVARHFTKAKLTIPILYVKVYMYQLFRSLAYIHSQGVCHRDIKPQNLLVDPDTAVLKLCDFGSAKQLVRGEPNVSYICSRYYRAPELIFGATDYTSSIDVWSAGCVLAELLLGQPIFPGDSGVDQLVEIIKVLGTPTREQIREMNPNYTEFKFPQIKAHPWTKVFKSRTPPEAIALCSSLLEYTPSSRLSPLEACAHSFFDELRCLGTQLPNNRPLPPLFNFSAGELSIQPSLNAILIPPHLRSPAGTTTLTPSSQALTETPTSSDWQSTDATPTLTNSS
c-Src, sequence (P12931 whole entry, looked up): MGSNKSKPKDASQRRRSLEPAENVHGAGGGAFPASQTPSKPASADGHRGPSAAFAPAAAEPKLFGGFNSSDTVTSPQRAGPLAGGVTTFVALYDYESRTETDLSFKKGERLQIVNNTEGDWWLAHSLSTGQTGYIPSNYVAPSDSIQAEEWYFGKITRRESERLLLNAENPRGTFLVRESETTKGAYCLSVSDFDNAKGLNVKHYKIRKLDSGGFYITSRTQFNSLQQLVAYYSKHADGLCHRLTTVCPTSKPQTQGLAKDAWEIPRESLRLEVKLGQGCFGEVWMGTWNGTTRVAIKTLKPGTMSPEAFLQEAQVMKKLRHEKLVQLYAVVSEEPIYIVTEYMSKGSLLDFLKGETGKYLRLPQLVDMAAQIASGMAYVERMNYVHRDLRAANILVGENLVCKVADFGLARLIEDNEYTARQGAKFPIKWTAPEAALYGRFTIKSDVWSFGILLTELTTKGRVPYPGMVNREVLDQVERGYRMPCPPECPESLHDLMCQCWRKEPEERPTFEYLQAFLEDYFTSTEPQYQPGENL

In general, IC50 refers to the concentration that gives 50% inhibition. With `Cc1cc(Nc2nccc(Oc3ccc(NC(=O)Nc4cc(C(C)(C)C)nn4-c4ccc(P(C)(C)=O)cc4)c4ccccc34)n2)cc2cn[nH]c12` [Example 21, 1-(3-(tert-Butyl)-1-(4-(dimethylphosphoryl)phenyl)-1H-pyrazol-5-yl)-3-(4-((2-((7-methyl-1H-indazol-5-yl)amino)pyrimidin-4-yl)oxy)naphthalen-1-yl)urea], the IC50 in assay [1] was 2 nM; in assay [2], 3.4 nM; in assay [3], 44 nM; in assay [4] it was 1 nM; in assay [5] it was 761 nM.

For `CCP(=O)(CC)c1ccc(-n2nc(C(C)(C)C)cc2NC(=O)Nc2ccc(Oc3ccnc(Nc4ccccc4)n3)c3ccccc23)cc1` [Example 22, 1-(3-(tert-Butyl)-1-(4-(diethylphosphoryl)phenyl)-1H-pyrazol-5-yl)-3-(4-((2-(phenylamino)-pyrimidin-4-yl)oxy)naphthalen-1-yl)urea], the IC50 in assay [1] was determined as 200 nM; in assay [2] it was 32.8 nM; in assay [3], 67 nM; in assay [4] it was 9 nM; in assay [5], 818 nM.

On to `CC(C)(C)c1cc(NC(=O)Nc2ccc(Oc3ccnc(Nc4ccc(S(F)(F)(F)(F)F)cc4)n3)c3ccccc23)n(-c2ccc(P(C)(C)=O)cc2)n1` [Example 28, 1-(3-(tert-Butyl)-1-(4-(dimethylphosphoryl)phenyl)-1H-pyrazol-5-yl)-3-(4-((2-((4-(Pentafluorothio)phenyl)amino)pyrimidin-4-yl)oxy)naphthalen-1-yl)urea], for which the IC50 in assay [1] was 884 nM; in assay [2], 214 nM; in assay [3], over 1000 nM; in assay [4] it was 372 nM; in assay [5], over 10000 nM.

`CC(C)(C)c1cc(NC(=O)Nc2ccc(Oc3ccnc(Sc4ccccc4)n3)c3ccccc23)n(-c2ccc(P(C)(C)=O)cc2)n1` [Example 29, 1-(3-(tert-Butyl)-1-(4-(dimethylphosphoryl)phenyl)-1H-pyrazol-5-yl)-3-(4-((2-(phenylthio)-pyrimidin-4-yl)oxy)naphthalen-1-yl)urea]: the IC50 in assay [1] is over 1000 nM; in assay [2] it was 150 nM; in assay [3], 149 nM; in assay [4] it was over 1000 nM; in assay [5] it was over 10000 nM.

Turning to `CN(CCCO)c1nccc(Oc2ccc(NC(=O)Nc3cc(C(C)(C)C)nn3-c3ccc(P(C)(C)=O)cc3)c3ccccc23)n1` [Example 30, 1-(3-(tert-Butyl)-1-(4-(dimethylphosphoryl)phenyl)-1H-pyrazol-5-yl)-3-(4-((2-((3-hydroxy-propyl)(methyl)amino)pyrimidin-4-yl)oxy)naphthalen-1-yl)urea], the IC50 in assay [1] was over 1000 nM; in assay [2], 280 nM; in assay [3] it was 27 nM; in assay [4], 795 nM; in assay [5], over 10000 nM.

`CCP(=O)(CC)Cc1cccc(-n2nc(C(C)(C)C)cc2NC(=O)Nc2ccc(Oc3ccnc(Nc4cc(C)c5[nH]ncc5c4)n3)c3ccccc23)c1` [Example 36, 1-(3-(tert-Butyl)-1-(3-((diethylphosphoryl)methyl)phenyl)-1H-pyrazol-5-yl)-3-(4-((2-((7-methyl-1H-indazol-5-yl)amino)pyrimidin-4-yl)oxy)naphthalen-1-yl)urea]: the 50% inhibitory concentration (IC50) was 9 nM in assay [1]; 3.5 nM in assay [2]; 159 nM in assay [3]; 8 nM in assay [4]; 3410 nM in assay [5].

For `Cc1cc(Nc2nccc(Oc3ccc(NC(=O)Nc4cc(C(C)C)nn4-c4cccc(CP(C)(C)=O)c4)c4ccccc34)n2)cc2cn[nH]c12` [Example 37, 1-(1-(3-((Dimethylphosphoryl)methyl)phenyl)-3-isopropyl-1H-pyrazol-5-yl)-3-(4-((2-((7-methyl-1H-indazol-5-yl)amino)pyrimidin-4-yl)oxy)naphthalen-1-yl)urea], the IC50 in assay [1] amounted to 5 nM; in assay [2] it was 3 nM; in assay [3], 70 nM; in assay [4], 10 nM; in assay [5] it was 4860 nM.

With `COc1cc(Nc2nccc(Oc3ccc(NC(=O)Nc4cc(C(C)C)nn4-c4cccc(CP(C)(C)=O)c4)c4ccccc34)n2)cc(S(=O)(=O)C2CC2)c1` [Example 46, 1-(4-((2-((3-(Cyclopropylsulfonyl)-5-methoxyphenyl)amino)pyrimidin-4-yl)oxy)naphthalen-1-yl)-3-(1-(3-((dimethylphosphoryl)methyl)phenyl)-3-isopropyl-1H-pyrazol-5-yl)urea], the figures for the IC50 in assay [2] and in assay [5] were 5.9 nM and 1600 nM, respectively.

Take `COc1cc(Nc2nccc(Oc3ccc(NC(=O)Nc4cc(C(C)(C)C)nn4-c4cccc(CP(C)(C)=O)c4)c4ccccc34)n2)cc(C(=O)NCCN2CCOCC2)c1` [Example 47, 3-((4-((4-(3-(3-(tert-Butyl)-1-(3-((dimethylphosphoryl)methyl)phenyl)-1H-pyrazol-5-yl)ureido)naphthalen-1-yl)oxy)pyrimidin-2-yl)amino)-5-methoxy-N-(2-morpholinoethyl)-benzamide]: the IC50 in assay [2] is 0.8 nM; in assay [5] it was 406 nM.

As for `CC(C)c1cc(NC(=O)Nc2ccc(Oc3ccnc(Nc4cc(OCCN5CCOCC5)cc(S(C)(=O)=O)c4)n3)c3ccccc23)n(-c2cccc(CP(C)(C)=O)c2)n1` [Example 53, 1-(1-(3-((Dimethylphosphoryl)methyl)phenyl)-3-isopropyl-1H-pyrazol-5-yl)-3-(4-((2-((3-(methylsulfonyl)-5-(2-morpholinoethoxy)phenyl)amino)pyrimidin-4-yl)oxy)naphthalen-1-yl)urea], the values for the IC50 in assay [2] and in assay [5] were 2 nM and 188 nM, respectively.

Consider `COc1cc(Nc2nccc(Oc3ccc(NC(=O)Nc4cc(C(C)C)nn4-c4cccc(CP(C)(C)=O)c4)c4ncccc34)n2)cc(OCCN2CCOCC2)c1` [Example 54, 1-(1-(3-((Dimethylphosphoryl)methyl)phenyl)-3-isopropyl-1H-pyrazol-5-yl)-3-(5-((2-((3-methoxy-5-(2-morpholinoethoxy)phenyl)amino)pyrimidin-4-yl)oxy)quinolin-8-yl)urea], for which the IC50 was 27.4 nM in assay [2] and over 10000 nM in assay [5].

For the compound `COCCOCCOCCOCCOCCOc1cc(Nc2nccc(Oc3ccc(NC(=O)Nc4cc(C(C)C)nn4-c4cccc(CP(C)(C)=O)c4)c4ccccc34)n2)cc(OC)c1` [Example 55, 1-(4-((2-((3-(2,5,8,11,14-Pentaoxahexadecan-16-yloxy)-5-methoxyphenyl)amino)-pyrimidin-4-yl)oxy)naphthalen-1-yl)-3-(1-(3-((dimethylphosphoryl)methyl)phenyl)-3-isopropyl-1H-pyrazol-5-yl)urea], the IC50 in assay [2] turned out to be 5.4 nM; in assay [5] it was 1670 nM.

For `C#Cc1cc(Nc2nccc(Oc3ccc(NC(=O)Nc4cc(C(C)C)nn4-c4cccc(CP(C)(C)=O)c4)c4ccccc34)n2)cc(OCCN2CCOCC2)c1` [Example 56, 1-(1-(3-((Dimethylphosphoryl)methyl)phenyl)-3-isopropyl-1H-pyrazol-5-yl)-3-(4-((2-((3-ethynyl-5-(2-morpholinoethoxy)phenyl)amino)pyrimidin-4-yl)oxy)naphthalen-1-yl)urea], the IC50 in assay [2] was determined as 1.7 nM; in assay [5] it was 788 nM.
